According to patent US20220409620A1, “REDUCING IMMUNOGENICITY TO PEGLOTICASE” (Horizon Pharma Rheumatology LLC, priority 2016, published 2022):
Read-outs that look alike come from different tables or passages of the source.

Assays:
patients = conditions: cited from earlier work
[1] = test system: adult patients with uncontrolled gout; test: Tender and swollen joint counts, open-label study; type: in vivo, human
Description: Tender and Swollen Joint Counts: Tender and swollen (excludes hip) joint counts were recorded at the Week −4 or week −6 (prior to the first dose of MTX) Visit during the MTX Run-in Period for the open-label and randomized studies, respectively; prior to pegloticase infusion at the Day 1 and Weeks 14, 24 and 36 Visits, or at the Day 1 and weeks 6, 14, 20, 24, 30, 36, and 44 visits during the Pegloticase+IMM Period for the open-label and randomized studies, respectively; and at the End of Pegloticase Infusions Visit (if applicable) and the Week 52/End of Study/Early Termination Visit and the Post Treatment 3 and 6 month Follow-up visits. Tender and swollen joint counts were assessed by physical examination.

[2] = test system: patients with refractory chronic gout; conditions: cited from earlier work; for patients maintaining a response to pegloticase: another study
[3] = Early Termination Visit, Pegloticase Baseline, mITT Population
[4] = End of Pegloticase Infusions Visit, Pegloticase Baseline, mITT Population
[5] = Week 14, Pegloticase Baseline, mITT Population
[6] = Week 24, Pegloticase Baseline, mITT Population
[7] = Week 36, Pegloticase Baseline, mITT Population
[8] = Week 52/ET, Pegloticase Baseline, mITT Population
[9] = mITT, Early Termination Visit, n=3
[10] = mITT, End of Pegloticase Infusions Visit, n=2

Compound: CN(Cc1cnc2nc(N)nc(N)c2n1)c1ccc(C(=O)N[C@@H](CCC(=O)O)C(=O)O)cc1 [MTX, methotrexate]
- Increased susceptibility to infection (patients; RA): < 1%
- Leukopenia (patients; RA): 28%
- Nausea and vomiting (patients; RA): 12%
- Increased susceptibility to infection (patients; renal transplant): 20%
- Leukopenia (patients; renal transplant): > 50%
- neoplasia (lymphoma) (patients; renal transplant): 0.5%
- neoplasia (other than lymphoma) (patients; renal transplant): 3%

Compound: pegloticase
- Swollen Joint Count, Change from Baseline, Mean (SD) [1, 3]: −3.3 (3.06)
- Swollen Joint Count, Change from Baseline, Median [1, 3]: −4.0
- Swollen Joint Count, Observed, Mean (SD) [1, 3]: 0.7 (0.58)
- Swollen Joint Count, Observed, Median [1, 3]: 1.0
- Tender Joint Count, Change from Baseline, Mean (SD) [1, 3]: −2.7 (4.16)
- Tender Joint Count, Change from Baseline, Median [1, 3]: −4.0
- Tender Joint Count, Observed, Mean (SD) [1, 3]: 7.7 (8.96)
- Tender Joint Count, Observed, Median [1, 3]: 3.0
- Swollen Joint Count, Change from Baseline, Mean (SD) [1, 4]: −2.0 (2.83)
- Swollen Joint Count, Change from Baseline, Median [1, 4]: −2.0
- Swollen Joint Count, Observed, Mean (SD) [1, 4]: 0.0 (0.00)
- Swollen Joint Count, Observed, Median [1, 4]: 0.0
- Tender Joint Count, Change from Baseline, Mean (SD) [1, 4]: −3.0 (5.66)
- Tender Joint Count, Change from Baseline, Median [1, 4]: −3.0
- Tender Joint Count, Observed, Mean (SD) [1, 4]: 2.0 (2.83)
- Tender Joint Count, Observed, Median [1, 4]: 2.0
- Swollen Joint Count, Change from Baseline, Mean (SD) [1, 5]: −3.6 (7.04)
- Swollen Joint Count, Change from Baseline, Median [1, 5]: −2.5
- Swollen Joint Count, Observed, Mean (SD) [1, 5]: 1.7 (3.73)
- Swollen Joint Count, Observed, Median [1, 5]: 0.0
- Tender Joint Count, Change from Baseline, Mean (SD) [1, 5]: −5.1 (8.12)
- Tender Joint Count, Change from Baseline, Median [1, 5]: −5.0
- Tender Joint Count, Observed, Mean (SD) [1, 5]: 4.6 (6.16)
- Tender Joint Count, Observed, Median [1, 5]: 2.0
- Swollen Joint Count, Change from Baseline, Mean (SD) [1, 6]: −5.1 (6.66)
- Swollen Joint Count, Change from Baseline, Median [1, 6]: −3.0
- Swollen Joint Count, Observed, Mean (SD) [1, 6]: 0.5 (1.21)
- Swollen Joint Count, Observed, Median [1, 6]: 0.0
- Tender Joint Count, Change from Baseline, Mean (SD) [1, 6]: −6.8 (8.16)
- Tender Joint Count, Change from Baseline, Median [1, 6]: −4.0
- Tender Joint Count, Observed, Mean (SD) [1, 6]: 2.6 (3.88)
- Tender Joint Count, Observed, Median [1, 6]: 0.0
- Swollen Joint Count, Change from Baseline, Mean (SD) [1, 7]: −6.2 (8.15)
- Swollen Joint Count, Change from Baseline, Median [1, 7]: −4.0
- Swollen Joint Count, Observed, Mean (SD) [1, 7]: 0.1 (0.33)
- Swollen Joint Count, Observed, Median [1, 7]: 0.0
- Tender Joint Count, Change from Baseline, Mean (SD) [1, 7]: −7.8 (8.94)
- Tender Joint Count, Change from Baseline, Median [1, 7]: −4.0
- Tender Joint Count, Observed, Mean (SD) [1, 7]: 2.1 (4.54)
- Tender Joint Count, Observed, Median [1, 7]: 0.0
- Swollen Joint Count, Change from Baseline, Mean (SD) [1, 8]: −13.0 (13.00)
- Swollen Joint Count, Change from Baseline, Median [1, 8]: −13.0
- Swollen Joint Count, Observed, Mean (SD) [1, 8]: 0.0 (0.00)
- Swollen Joint Count, Observed, Median [1, 8]: 0.0
- Tender Joint Count, Change from Baseline, Mean (SD) [1, 8]: −16.0 (17.52)
- Tender Joint Count, Change from Baseline, Median [1, 8]: −15.0
- Tender Joint Count, Observed, Mean (SD) [1, 8]: 5.3 (3.21)
- Tender Joint Count, Observed, Median [1, 8]: 4.0
- Swollen Joint Count, Change from Methotrexate Baseline, Mean (SD) ([1]; mITT, Day 1, n=14): −0.7 (5.21)
- Swollen Joint Count, Change from Methotrexate Baseline, Median ([1]; mITT, Day 1, n=14): 0.5
- Swollen Joint Count, Observed, Mean (SD) ([1]; mITT, Day 1, n=14): 5.3 (6.94)
- Swollen Joint Count, Observed, Median ([1]; mITT, Day 1, n=14): 3.5
- Tender Joint Count, Change from Methotrexate Baseline, Mean (SD) ([1]; mITT, Day 1, n=14): −1.9 (9.75)
- Tender Joint Count, Change from Methotrexate Baseline, Median ([1]; mITT, Day 1, n=14): 0.0
- Tender Joint Count, Observed, Mean (SD) ([1]; mITT, Day 1, n=14): 9.6 (11.03)
- Tender Joint Count, Observed, Median ([1]; mITT, Day 1, n=14): 7.0
- Swollen Joint Count, Change from Methotrexate Baseline, Mean (SD) [1, 9]: −1.0 (1.73)
- Swollen Joint Count, Change from Methotrexate Baseline, Median [1, 9]: 0.0
- Swollen Joint Count, Observed, Mean (SD) [1, 9]: 0.7 (0.58)
- Swollen Joint Count, Observed, Median [1, 9]: 1.0
- Tender Joint Count, Change from Methotrexate Baseline, Mean (SD) [1, 9]: 0.7 (5.13)
- Tender Joint Count, Change from Methotrexate Baseline, Median [1, 9]: 2.0
- Tender Joint Count, Observed, Mean (SD) [1, 9]: 7.7 (8.96)
- Tender Joint Count, Observed, Median [1, 9]: 3.0
- Swollen Joint Count, Change from Methotrexate Baseline, Mean (SD) [1, 10]: −7.0 (4.24)
- Swollen Joint Count, Change from Methotrexate Baseline, Median [1, 10]: −7.0
- Swollen Joint Count, Observed, Mean (SD) [1, 10]: 0.0 (0.00)
- Swollen Joint Count, Observed, Median [1, 10]: 0.0
- Tender Joint Count, Change from Methotrexate Baseline, Mean (SD) [1, 10]: −12.0 (7.07)
- Tender Joint Count, Change from Methotrexate Baseline, Median [1, 10]: −12.0
- Tender Joint Count, Observed, Mean (SD) [1, 10]: 2.0 (2.83)
- Tender Joint Count, Observed, Median [1, 10]: 2.0
- Swollen Joint Count, Change from Methotrexate Baseline, Mean (SD) ([1]; mITT, Week 14, n=14): −4.3 (7.38)
- Swollen Joint Count, Change from Methotrexate Baseline, Median ([1]; mITT, Week 14, n=14): −2.0
- Swollen Joint Count, Observed, Mean (SD) ([1]; mITT, Week 14, n=14): 1.7 (3.73)
- Swollen Joint Count, Observed, Median ([1]; mITT, Week 14, n=14): 0.0
- Tender Joint Count, Change from Methotrexate Baseline, Mean (SD) ([1]; mITT, Week 14, n=14): −7.0 (14.20)
- Tender Joint Count, Change from Methotrexate Baseline, Median ([1]; mITT, Week 14, n=14): 0.0
- Tender Joint Count, Observed, Mean (SD) ([1]; mITT, Week 14, n=14): 4.6 (6.16)
- Tender Joint Count, Observed, Median ([1]; mITT, Week 14, n=14): 2.0
- Swollen Joint Count, Change from Methotrexate Baseline, Mean (SD) ([1]; mITT, Week 24, n=11): −6.6 (9.03)
- Swollen Joint Count, Change from Methotrexate Baseline, Median ([1]; mITT, Week 24, n=11): −3.0
- Swollen Joint Count, Observed, Mean (SD) ([1]; mITT, Week 24, n=11): 0.5 (1.21)
- Swollen Joint Count, Observed, Median ([1]; mITT, Week 24, n=11): 0.0
- Tender Joint Count, Change from Methotrexate Baseline, Mean (SD) ([1]; mITT, Week 24, n=11): −10.2 (14.27)
- Tender Joint Count, Change from Methotrexate Baseline, Median ([1]; mITT, Week 24, n=11): −4.0
- Tender Joint Count, Observed, Mean (SD) ([1]; mITT, Week 24, n=11): 2.6 (3.88)
- Tender Joint Count, Observed, Median ([1]; mITT, Week 24, n=11): 0.0
- Swollen Joint Count, Change from Methotrexate Baseline, Mean (SD) ([1]; mITT, Week 36, n=9): −7.8 (10.81)
- Swollen Joint Count, Change from Methotrexate Baseline, Median ([1]; mITT, Week 36, n=9): −3.0
- Swollen Joint Count, Observed, Mean (SD) ([1]; mITT, Week 36, n=9): 0.1 (0.33)
- Swollen Joint Count, Observed, Median ([1]; mITT, Week 36, n=9): 0.0
- Tender Joint Count, Change from Methotrexate Baseline, Mean (SD) ([1]; mITT, Week 36, n=9): −12.3 (14.56)
- Tender Joint Count, Change from Methotrexate Baseline, Median ([1]; mITT, Week 36, n=9): −7.0
- Tender Joint Count, Observed, Mean (SD) ([1]; mITT, Week 36, n=9): 2.1 (4.54)
- Tender Joint Count, Observed, Median ([1]; mITT, Week 36, n=9): 0.0
- Swollen Joint Count, Change from Methotrexate Baseline, Mean (SD) ([1]; mITT, Week 52/ET, n=3): −21.0 (9.64)
- Swollen Joint Count, Change from Methotrexate Baseline, Median ([1]; mITT, Week 52/ET, n=3): −25.0
- Swollen Joint Count, Observed, Mean (SD) ([1]; mITT, Week 52/ET, n=3): 0.0 (0.00)
- Swollen Joint Count, Observed, Median ([1]; mITT, Week 52/ET, n=3): 0.0
- Tender Joint Count, Change from Methotrexate Baseline, Mean (SD) ([1]; mITT, Week 52/ET, n=3): −24.0 (21.38)
- Tender Joint Count, Change from Methotrexate Baseline, Median ([1]; mITT, Week 52/ET, n=3): −17.0
- Tender Joint Count, Observed, Mean (SD) ([1]; mITT, Week 52/ET, n=3): 5.3 (3.21)
- Tender Joint Count, Observed, Median ([1]; mITT, Week 52/ET, n=3): 4.0
- Non-responders ([2]; C0405 and C0406): 49/85
- patients maintaining a response to pegloticase ([2]; antibody titer exceeding 1:2430 at any time during treatment, 7 of 65): 10.8%
- patients maintaining a response to pegloticase ([2]; never had an antibody titer above 1:2430, 58/65): 89.2%
- Responders (sUA <6 mg/dL for at least 80% of the time during month 6) ([2]; historical Phase 3 monotherapy trials C0405 and C0406, 36/85): 42%
- response rate during Month 6 ([2]; pegloticase 8 mg every 2 weeks, phase 3 studies): 43%
- proportion of responders during Month 6 ([2]; phase 3 studies): 43.5%
- incidence of infusion-related reactions ([2]; pooled Phase 3, 8 mg biweekly dosing): 26%
- incidence of infusion-related reactions ([2]; pooled Phase 3, 8 mg every-4-week dosing regimen): 40%
- pegloticase-treated patients with IRs in whom loss of response (return to SUA >6 mg/dL) preceded the first IR ([2]; pooled Phase 3, 20/21): 95%
- infusion reactions reported ([2]; pre-marketing controlled clinical trials, 8 mg every 2 weeks): 26%
- anaphylaxis frequency ([2]; pre-marketing controlled clinical trials): 6.5%
- participants with high antibody titers who maintained a response (serum urate <6 mg/dL) ([2]; second study): 1 of 52 participants
- participants with high titers who developed IR ([2]; second study): 60%
- patients who developed IRs ([2]; titers exceeding 1:2430, 31 of 52): 60%
- patients with Cmin below quantitation limit ([2]; without MTX, 63/82): 77%
- pegloticase overall Cmin, median ([2]; without MTX, historical monotherapy, BQL = below quantitation limit of 0.6 μg/mL): BQL
- pegloticase Cmax, median ([2]; without MTX, historical monotherapy): 1510 ng/mL
